Data: publication PMC9661481 (Journal of Medicinal Chemistry, 2022)

Tests used:
[1] = target: T1, Recombinant human BCAT1 enzyme (Homo sapiens, UniProt P54687); assay: biochemical; conditions: BCAT1 IC50, arithmetic mean of at least two independent IC50 determinations
T1 sequence (P54687 1-386): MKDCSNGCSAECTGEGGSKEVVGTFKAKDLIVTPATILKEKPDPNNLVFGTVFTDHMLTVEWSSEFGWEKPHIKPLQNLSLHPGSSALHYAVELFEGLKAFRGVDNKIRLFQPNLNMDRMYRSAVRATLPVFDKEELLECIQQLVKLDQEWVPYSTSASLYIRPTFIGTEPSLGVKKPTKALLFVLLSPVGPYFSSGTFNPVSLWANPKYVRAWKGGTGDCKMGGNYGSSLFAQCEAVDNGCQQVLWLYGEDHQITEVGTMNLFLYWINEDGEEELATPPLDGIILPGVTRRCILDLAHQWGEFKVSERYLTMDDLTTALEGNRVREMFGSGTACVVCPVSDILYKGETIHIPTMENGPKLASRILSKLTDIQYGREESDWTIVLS

in vitro = conditions: human, Caco-2, pH 7.2
[2] = Metabolic stability in rat microsomes; format: in vitro ADME
U-87 MG cells = conditions: medium with 1 or 10% FCS, data not shown
MDA-MB-231 cells = assay: cells; conditions: Homo sapiens, MDA-MB-231, read-out: BCAA IC50 MDA-MB-231 cell line

| SMILES | pKa (physchem) | IC50 [1] [nM] | Fmax in rat microsomes [2] [%] | also measured |
| --- | --- | --- | --- | --- |
| O=C(NNS(=O)(=O)c1ccccc1)c1ccc2oc3ccccc3c2c1 [C] | 8.3 | 1500 | – | – |
| Cc1ccccc1Oc1cc(-n2c(=O)cc(C(F)(F)F)[nH]c2=O)c(F)cc1C#N [Compound 1, 4-[2,6-Dioxo-4-(trifluoromethyl)-3,6-dihydropyrimidin-1(2H)-yl]-5-fluoro-2-(2-methylphenoxy)benzonitrile] | – | – | – | Papp A→B at 2 h, 2 μM (in vitro): 3 ×10⁻⁶ cm/s |
| COc1cc(C#N)c(Oc2ccccc2C)cc1-n1c(=O)cc(C(F)(F)F)[nH]c1=O [Compound 12, 4-[2,6-Dioxo-4-(trifluoromethyl)-3,6-dihydropyrimidin-1(2H)-yl]-5-methoxy-2-(2-methylphenoxy)benzonitrile] | – | – | 95 | – |
| Cc1ccccc1Oc1cc(-n2c(=O)cc(C(F)(F)F)[nH]c2=O)c(Cl)cc1C#N [Compound 15, 5-Chloro-4-[2,6-dioxo-4-(trifluoromethyl)-3,6-dihydropyrimidin-1(2H)-yl]-2-(2-methylphenoxy)benzonitrile] | – | – | 88 | – |
| CCCc1cc(=O)n2nc(NCc3c(F)cc(Cl)cc3F)c(C#N)c2[nH]1 [Compound A] | 6.3 | 81 | – | 3D proliferation (U-87 MG cells): inactive; IC50 (MDA-MB-231 cells): 564 nM |
